What follows are compounds tested against human IRAK4 FL (Full Length) (Homo sapiens (Human), UniProt Q9NWZ3) (assay: IRAK4 Enzymatic DELFIA Assay, Protocol A). Details: human IRAK4 FL, 0.6 mM ATP (KM); read-out: IRAK4 DELFIA Protocol A IC50.
Type: biochemical

Chain of human IRAK4 FL (Full Length) (Q9NWZ3 whole entry): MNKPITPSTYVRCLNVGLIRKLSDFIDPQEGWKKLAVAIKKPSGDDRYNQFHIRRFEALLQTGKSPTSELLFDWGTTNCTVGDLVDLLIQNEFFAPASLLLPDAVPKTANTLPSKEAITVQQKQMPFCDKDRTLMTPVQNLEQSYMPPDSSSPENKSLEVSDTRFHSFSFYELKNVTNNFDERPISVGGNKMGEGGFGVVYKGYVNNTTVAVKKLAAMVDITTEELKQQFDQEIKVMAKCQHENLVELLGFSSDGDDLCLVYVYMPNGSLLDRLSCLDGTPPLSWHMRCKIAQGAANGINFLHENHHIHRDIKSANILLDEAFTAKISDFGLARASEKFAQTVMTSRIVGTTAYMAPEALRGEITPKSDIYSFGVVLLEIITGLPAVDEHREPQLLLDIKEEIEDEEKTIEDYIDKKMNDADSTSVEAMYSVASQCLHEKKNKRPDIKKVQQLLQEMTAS

Compound | IC50 [nM]
Cc1nc(-c2cnc(OC[C@@H]3CCC(=O)N3)c3cc(OC(C)C)c(C(N)=O)cc23)cn1C [Example 372, 4-(1,2-dimethyl-1H-imidazol-4-yl)-1-{[(2S)-5-oxopyrrolidin-2-yl]methoxy}-7-(propan-2-yloxy)isoquinoline-6-carboxamide] | 11
Cc1nc(-c2cnc(OC[C@@H]3CCC(=O)N3)c3cc(OC(C)C)c(C(N)=O)cc23)c[nH]1 [Example 373, 4-(2-methyl-1H-imidazol-4-yl)-1-{[(2S)-5-oxopyrrolidin-2-yl]methoxy}-7-(propan-2-yloxy)isoquinoline-6-carboxamide] | 35

Each compound was assayed against human IRAK4 kinase domain (aa 154-460) (Homo sapiens (Human), UniProt Q9NWZ3) (assay: IRAK4 Enzymatic DELFIA Assay, Protocol B). Details: not given.
Chain of human IRAK4 kinase domain (aa 154-460) (Q9NWZ3 154-460): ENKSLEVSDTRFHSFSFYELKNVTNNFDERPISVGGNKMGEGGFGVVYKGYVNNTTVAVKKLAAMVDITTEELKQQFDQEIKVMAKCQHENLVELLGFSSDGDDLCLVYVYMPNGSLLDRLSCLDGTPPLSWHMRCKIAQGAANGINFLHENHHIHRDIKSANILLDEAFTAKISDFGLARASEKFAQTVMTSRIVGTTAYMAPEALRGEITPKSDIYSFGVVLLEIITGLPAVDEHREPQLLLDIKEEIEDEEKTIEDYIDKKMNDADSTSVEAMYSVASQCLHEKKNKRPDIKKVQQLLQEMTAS
Type: biochemical
Excerpt: IRAK4 Enzymatic DELFIA Assay, Protocol B.

Compound | IC50 [nM]
CC(C)Oc1cc2c(OC3CC[C@@H]4CN(C(=O)CC#N)C[C@H]34)ccnc2cc1C(N)=O (single isomer, unassigned) [Example 71] | 153
CC(C)Oc1cc2c(OC3CC4CCC3C4)ccnc2cc1C(N)=O (stereo not shown) [Example 16, 4-(bicyclo[2.2.1]hept-2-yloxy)-6-(propan-2-yloxy)quinoline-7-carboxamide] | 386
CC(C)Oc1cc2c(OC3C4CC5C(C4)C53)ccnc2cc1C(N)=O (stereo not shown) [Example 17, 6-(propan-2-yloxy)-4-(tricyclo[2.2.1.0~2,6~]hept-3-yloxy)quinoline-7-carboxamide] | 476

Same assay, conditions: human IRAK4 kinase domain (aa 154-460), 0.6 mM ATP (KM); read-out: IRAK4 DELFIA Protocol B IC50

Compound | IC50 [nM]
CC(C)Oc1cc2c(OC3C[C@@H]4C[C@H]3CN(C(=O)CC#N)C4)ccnc2cc1C(N)=O (stereo in doubt) [Example 92, 4-{[(1S,5S,6S)-3-(cyanoacetyl)-3-azabicyclo[3.2.1]oct-6-yl]oxy}-6-(propan-2-yloxy)quinoline-7-carboxamide] | 473
CC(C)Oc1cc2c(OCC3CNC3)ccnc2cc1C(N)=O [Example 1, 4-(azetidin-3-ylmethoxy)-6-(propan-2-yloxy)quinoline-7-carboxamide] | 2910
CC(C)Oc1cc2c(O[C@@H]3C[C@H]4C[C@@H]3CN4)nccc2cc1C(N)=O [Example 02, 1-[(1R,4R,5R)-2-azabicyclo[2.2.1]hept-5-yloxy]-7-(propan-2-yloxy)isoquinoline-6-carboxamide] | 217
CC(C)Oc1cc2c(OC[C@H]3CCCNC3)ccnc2cc1C(N)=O [Example 2, 4-[(3S)-piperidin-3-ylmethoxy]-6-(propan-2-yloxy)quinoline-7-carboxamide] | 4500
CC(C)Oc1cc2c(OC[C@@H]3CCCNC3)ccnc2cc1C(N)=O [Example 3, 4-[(3R)-piperidin-3-ylmethoxy]-6-(propan-2-yloxy)quinoline-7-carboxamide] | 2240
CC(C)Oc1cc2c(OCC3CCNCC3)ccnc2cc1C(N)=O [Example 4, 4-(piperidin-4-ylmethoxy)-6-(propan-2-yloxy)quinoline-7-carboxamide] | 913
CC(C)Oc1cc2c(OC[C@H]3[C@@H]4CNC[C@@H]43)ccnc2cc1C(N)=O [Example 5, 4-[(1R,5S,6r)-3-azabicyclo[3.1.0]hex-6-ylmethoxy]-6-(propan-2-yloxy)quinoline-7-carboxamide] | 323
CC(C)Oc1cc2c(OCC3COC3)ccnc2cc1C(N)=O [Example 6, 4-(oxetan-3-ylmethoxy)-6-(propan-2-yloxy)quinoline-7-carboxamide] | 618
CC(C)Oc1cc2c(OCC3CCCC3)ccnc2cc1C(N)=O [Example 7, 4-(cyclopentylmethoxy)-6-(propan-2-yloxy)quinoline-7-carboxamide] | 170
CC(C)Oc1cc2c(OC(C)C3CCC3)ccnc2cc1C(N)=O (stereo not shown) [Example 8, 4-(1-cyclobutylethoxy)-6-(propan-2-yloxy)quinoline-7-carboxamide] | 834
CC(C)Oc1cc2c(OCC3CCC3)ccnc2cc1C(N)=O [Example 9, 4-(cyclobutylmethoxy)-6-(propan-2-yloxy)quinoline-7-carboxamide] | 598
CC(C)Oc1cc2c(OCC3CCOC3)ccnc2cc1C(N)=O (stereo not shown) [Example 10, 6-(propan-2-yloxy)-4-(tetrahydrofuran-3-ylmethoxy)quinoline-7-carboxamide] | 752
CC(C)Oc1cc2c(OCC3CCCO3)ccnc2cc1C(N)=O (stereo not shown) [Example 11, 6-(propan-2-yloxy)-4-(tetrahydrofuran-2-ylmethoxy)quinoline-7-carboxamide] | 3230
CC(C)Oc1cc2c(OCC3(C)COC3)ccnc2cc1C(N)=O [Example 12, 4-[(3-methyloxetan-3-yl)methoxy]-6-(propan-2-yloxy)quinoline-7-carboxamide] | 1040
CC(C)Oc1cc2c(OCC3(C)CCC3)ccnc2cc1C(N)=O [Example 13, 4-[(1-methylcyclobutyl)methoxy]-6-(propan-2-yloxy)quinoline-7-carboxamide] | 383
CC(C)Oc1cc2c(O[C@@H]3CC4CCC3C4)ccnc2cc1C(N)=O (stereo partly drawn) [Example 14, 4-[(2R)-bicyclo[2.2.1]hept-2-yloxy]-6-(propan-2-yloxy)quinoline-7-carboxamide] | 231
CC(C)Oc1cc2c(OC[C@H]3CCCO3)ccnc2cc1C(N)=O [Example 15, 6-(propan-2-yloxy)-4-[(2R)-tetrahydrofuran-2-ylmethoxy]quinoline-7-carboxamide] | 2970
CC(C)Oc1cc2c(OCC3COCO3)ccnc2cc1C(N)=O (stereo not shown) [Example 18, 4-(1,3-dioxolan-4-ylmethoxy)-6-(propan-2-yloxy)quinoline-7-carboxamide] | 507

Compound | IC50 [nM]
CC(C)Oc1cc2c(O[C@@H]3CC4CC[C@H]3C4)ccnc2cc1C(N)=O [Example 19, 4-[(1S,2R)-bicyclo[2.2.1]hept-2-yloxy]-6-(propan-2-yloxy)quinoline-7-carboxamide] | 354
CC(C)Oc1cc2c(OC3CC[C@@H]4CNC[C@H]34)nccc2cc1C(N)=O (stereo partly drawn) [Example 20, 1-[(3aR,6aS)-octahydrocyclopenta[c]pyrrol-4-yloxy]-7-(propan-2-yloxy)isoquinoline-6-carboxamide] | 102
CC(C)Oc1cc2c(OC3CC[C@@H]4CNC[C@H]34)ccnc2cc1C(N)=O (stereo partly drawn) [Example 21, 4-[(3aR,6aS)-octahydrocyclopenta[c]pyrrol-4-yloxy]-6-(propan-2-yloxy)quinoline-7-carboxamide] | 83
CC(C)Oc1cc2c(OC[C@H]3CCN(C(=O)CC#N)C3)ccnc2cc1C(N)=O [Example 22, 4-{[(3S)-1-(cyanoacetyl)pyrrolidin-3-yl]methoxy}-6-(propan-2-yloxy)quinoline-7-carboxamide] | 45
CC(C)Oc1cc2c(OCC3CCOC3)nccc2cc1C(N)=O (stereo not shown) [Example 24, 7-(propan-2-yloxy)-1-(tetrahydrofuran-3-ylmethoxy)isoquinoline-6-carboxamide] | 492
CC(C)Oc1cc2c(OCC3CCCCO3)nccc2cc1C(N)=O (stereo not shown) [Example 25, 7-(propan-2-yloxy)-1-(tetrahydro-2H-pyran-2-ylmethoxy)isoquinoline-6-carboxamide] | 1130
CC(C)Oc1cc2c(OCC3CCCS(=O)(=O)N3)nccc2cc1C(N)=O (stereo not shown) [Example 27, 1-[(1,1-dioxido-1,2-thiazinan-3-yl)methoxy]-7-(propan-2-yloxy)isoquinoline-6-carboxamide] | 2480
CC(C)Oc1cc2c(OC[C@H]3CCCNC3)nccc2cc1C(N)=O [Example 28, 1-[(3S)-piperidin-3-ylmethoxy]-7-(propan-2-yloxy)isoquinoline-6-carboxamide] | 1320
CC(C)Oc1cc2c(OCC3COC(=O)N3C)nccc2cc1C(N)=O (stereo not shown) [Example 29, 1-[(3-methyl-2-oxo-1,3-oxazolidin-4-yl)methoxy]-7-(propan-2-yloxy)isoquinoline-6-carboxamide] | 76
CC(C)Oc1cc2c(OC[C@H]3CCCO3)nccc2cc1C(N)=O [Example 30, 7-(propan-2-yloxy)-1-[(2R)-tetrahydrofuran-2-ylmethoxy]isoquinoline-6-carboxamide] | 2440
CC(C)Oc1cc2c(OC[C@@H]3CCCN3C)nccc2cc1C(N)=O [Example 31, 1-{[(2S)-1-methylpyrrolidin-2-yl]methoxy}-7-(propan-2-yloxy)isoquinoline-6-carboxamide] | 2620
CC(=O)N1CCC(COc2nccc3cc(C(N)=O)c(OC(C)C)cc23)CC1 [Example 33, 1-[(1-acetylpiperidin-4-yl)methoxy]-7-(propan-2-yloxy)isoquinoline-6-carboxamide] | 2860
CO[C@H]1CNC[C@@H]1COc1nccc2cc(C(N)=O)c(OC(C)C)cc12 [Example 34, 1-{[(3R,4R)-4-methoxypyrrolidin-3-yl]methoxy}-7-(propan-2-yloxy)isoquinoline-6-carboxamide] | 483
CC(C)Oc1cc2c(OCC3CNC(=O)O3)nccc2cc1C(N)=O (stereo not shown) [Example 35, 1-[(2-oxo-1,3-oxazolidin-5-yl)methoxy]-7-(propan-2-yloxy)isoquinoline-6-carboxamide] | 16
CC(C)Oc1cc2c(OCC3CCOCC3)nccc2cc1C(N)=O [Example 36, 7-(propan-2-yloxy)-1-(tetrahydro-2H-pyran-4-ylmethoxy)isoquinoline-6-carboxamide] | 735
CC(C)Oc1cc2c(OC[C@@H]3CNCCO3)nccc2cc1C(N)=O [Example 37, 1-[(2S)-morpholin-2-ylmethoxy]-7-(propan-2-yloxy)isoquinoline-6-carboxamide] | 3520
CC(C)Oc1cc2c(OCC3(F)CCNCC3)nccc2cc1C(N)=O [Example 38, 1-[(4-fluoropiperidin-4-yl)methoxy]-7-(propan-2-yloxy)isoquinoline-6-carboxamide] | 4640
CC(C)Oc1cc2c(OCC3CNCCO3)nccc2cc1C(N)=O (stereo not shown) [Example 39, 1-(morpholin-2-ylmethoxy)-7-(propan-2-yloxy)isoquinoline-6-carboxamide] | 386

Each compound was assayed on R848-induced TNFα production by human peripheral blood mononuclear cells (PBMCs) (assay: R848 Induced TNFα in Human PBMC Assay). Details: Homo sapiens, PBMC, 3 h, read-out: R848-induced TNFa PBMC IC50 (nM).
Type: cell-based
Excerpt: R848 Induced TNFα in Human PBMC Assay.
This protocol is for R848-induced TNFα production by human peripheral blood mononuclear cells (PBMCs). […] The assay is used to assess cell-based potency of small molecule inhibitors of IRAK4 in the absence of serum.
The PBMCs in the interphase layer were collected and washed with PBS via centrifugation multiple times until the supernatant is clear. The purified PBMCs were re-suspended in RPMI (Roswell Park Memorial Institute) media (Sigma-Aldrich).
For the assay, a compound dilution plate containing a top concentration of 4 mM compound in DMSO was serially diluted 4-fold for 11 times. 250 nL of the compound dilution plate was spotted into a 384-well, flat bottom with lid, TC-treated, black with clear bottom, sterile, polystyrene plate (Corning Life Sciences).
10 μL of anti-TNFα antibody labeled with MSD SULFO-TAG at 50 μg/mL was added to each well and allowed to incubate overnight at 4° C.

Compound | IC50 [nM]
Cc1nc(-c2cnc(OC[C@@H]3CCC(=O)N3)c3cc(OC(C)C)c(C(N)=O)cc23)cn1C [Example 372, 4-(1,2-dimethyl-1H-imidazol-4-yl)-1-{[(2S)-5-oxopyrrolidin-2-yl]methoxy}-7-(propan-2-yloxy)isoquinoline-6-carboxamide] | 649
Cc1nc(-c2cnc(OC[C@@H]3CCC(=O)N3)c3cc(OC(C)C)c(C(N)=O)cc23)c[nH]1 [Example 373, 4-(2-methyl-1H-imidazol-4-yl)-1-{[(2S)-5-oxopyrrolidin-2-yl]methoxy}-7-(propan-2-yloxy)isoquinoline-6-carboxamide] | 6160
